The experiment concerns the target ROCK2 (human) (UniProt O75116). The experiment can be described thus: Inhibition of ROCK2 Kinase Activity.

Sequence of ROCK2 (human) (O75116 whole entry, looked up): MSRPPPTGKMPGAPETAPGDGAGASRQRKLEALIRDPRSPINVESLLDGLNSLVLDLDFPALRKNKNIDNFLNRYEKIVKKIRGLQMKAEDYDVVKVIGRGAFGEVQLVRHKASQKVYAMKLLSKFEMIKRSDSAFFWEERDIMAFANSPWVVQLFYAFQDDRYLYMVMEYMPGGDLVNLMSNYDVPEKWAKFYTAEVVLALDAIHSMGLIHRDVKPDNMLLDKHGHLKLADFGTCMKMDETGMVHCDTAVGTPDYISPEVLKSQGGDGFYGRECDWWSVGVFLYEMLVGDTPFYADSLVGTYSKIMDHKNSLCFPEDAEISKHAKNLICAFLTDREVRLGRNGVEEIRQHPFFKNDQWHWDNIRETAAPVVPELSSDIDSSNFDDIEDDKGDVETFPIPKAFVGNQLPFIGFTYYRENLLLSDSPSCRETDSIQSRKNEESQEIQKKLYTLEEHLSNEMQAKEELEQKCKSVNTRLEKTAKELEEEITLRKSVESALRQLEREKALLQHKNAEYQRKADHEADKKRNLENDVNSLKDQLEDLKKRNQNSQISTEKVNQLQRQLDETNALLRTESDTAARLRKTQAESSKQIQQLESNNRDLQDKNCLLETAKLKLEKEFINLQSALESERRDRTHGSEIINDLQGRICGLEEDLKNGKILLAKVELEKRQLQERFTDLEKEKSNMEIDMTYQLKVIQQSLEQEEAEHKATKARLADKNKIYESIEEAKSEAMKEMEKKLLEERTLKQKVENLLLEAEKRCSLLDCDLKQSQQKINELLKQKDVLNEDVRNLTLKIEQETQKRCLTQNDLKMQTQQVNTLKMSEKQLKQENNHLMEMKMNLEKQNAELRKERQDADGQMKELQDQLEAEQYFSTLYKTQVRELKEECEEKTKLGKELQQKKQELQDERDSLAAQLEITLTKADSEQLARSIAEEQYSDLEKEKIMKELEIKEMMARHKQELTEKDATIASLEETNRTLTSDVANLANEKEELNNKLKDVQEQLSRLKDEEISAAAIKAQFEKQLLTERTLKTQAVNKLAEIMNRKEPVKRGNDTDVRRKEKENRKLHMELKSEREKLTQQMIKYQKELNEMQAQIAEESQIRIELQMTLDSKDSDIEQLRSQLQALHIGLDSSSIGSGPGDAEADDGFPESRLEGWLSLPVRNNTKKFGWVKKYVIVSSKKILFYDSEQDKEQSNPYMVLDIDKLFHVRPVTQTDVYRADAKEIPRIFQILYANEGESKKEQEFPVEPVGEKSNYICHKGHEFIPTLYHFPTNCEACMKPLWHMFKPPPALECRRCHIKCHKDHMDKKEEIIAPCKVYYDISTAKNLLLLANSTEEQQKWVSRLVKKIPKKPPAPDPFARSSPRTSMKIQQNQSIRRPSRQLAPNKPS

`Cc1cc(Cl)ccc1OC(C)C(=O)NCC(N)c1ccc(C(=O)Nc2ccncc2)cc1` (stereo not given) registered an IC50 of 0.05 to 0.5 µM.
With `NC(CNC(=O)c1ccc([N+](=O)[O-])o1)c1ccc(C(=O)Nc2ccncc2)cc1` (stereo not given) the figure was 0.5 to 5 µM; with `NC(c1ccc(C(=O)Nc2ccncc2)cc1)C1CCCN1C(=O)C1(c2ccc(Cl)cc2F)CC1` (stereo not given), 0.5 to 5 µM.
Consider `N[C@@H](CC(=O)N[C@H]1CCCc2ccccc21)c1ccc(C(=O)Nc2ccncc2)cc1`, for which the IC50 was 0.05 to 0.5 µM.
As for `CN(CC(N)c1ccc(C(=O)Nc2ccncc2)cc1)C(=O)C1(c2ccc(Cl)cc2Cl)CC1` (stereo not given), the IC50 was 0.5 to 5 µM.
With `NC(c1ccc(C(=O)Nc2ccncc2)cc1)C1CCCN1C(=O)C1(c2ccc(F)cc2)CC1` (stereo not given) the figure was 0.5 to 5 µM; with `Cc1ccc2[nH]cc(CCNC(=O)CC(N)c3ccc(C(=O)Nc4ccncc4)cc3)c2c1` (stereo not given), 0.05 to 0.5 µM; with `NC(CNC(=O)C1CCC1)c1ccc(C(=O)Nc2ccncc2)cc1` (stereo not given), 0.5 to 5 µM.
The value for `CN(CC(N)c1ccc(C(=O)Nc2ccncc2)cc1)C(=O)Cc1ccc(F)cc1` (stereo not given) was 0.5 to 5 µM.
The compound `CN(CC(N)c1ccc(C(=O)Nc2ccncc2)cc1)C(=O)Cc1ccc2c(c1)OCO2` (stereo not given) came in with an IC50 of 0.5 to 5 µM.
The compound `NC(CC(=O)NCc1ccc(F)cc1Cl)c1ccc(C(=O)Nc2ccncc2)cc1` (stereo not given) displayed an IC50 of 0.05 to 0.5 µM.
`NC(CNC(=O)C1(c2ccc(F)c(F)c2)CCC1)c1ccc(C(=O)Nc2ccncc2)cc1` (stereo not given) came in with an IC50 of 0.05 to 0.5 µM.
With `NC(CNC(=O)C(c1ccccc1)C1CCCC1)c1ccc(C(=O)Nc2ccncc2)cc1` (stereo not given) the figure was 0.5 to 5 µM.
With `NC(CNC(=S)Nc1ccc(Cl)cc1)c1ccc(C(=O)Nc2ccncc2)cc1` (stereo not given) the figure was 0.05 to 0.5 µM.
The value for `NC(CNC(=O)c1cccnc1)c1ccc(C(=O)Nc2ccncc2)cc1` (stereo not given) was 0.5 to 5 µM; that for `NC(CNC(=O)c1cccs1)c1ccc(C(=O)Nc2ccncc2)cc1` (stereo not given) was 0.05 to 0.5 µM.
`NC(CC(=O)NCc1ccc(F)c(C(F)(F)F)c1)c1ccc(C(=O)Nc2ccncc2)cc1` (stereo not given): the IC50 lay within 0.05 to 0.5 µM.
With `NC(CC(=O)Nc1ccccc1)c1ccc(C(=O)Nc2ccncc2)cc1` (stereo not given) the figure was 0.05 to 0.5 µM; with `NC(CC(=O)NCc1cccc(Cl)c1Cl)c1ccc(C(=O)Nc2ccncc2)cc1` (stereo not given), 0.05 to 0.5 µM; with `CN(CC(N)c1ccc(C(=O)Nc2ccncc2)cc1)C(=O)C1CCOc2ccc(Cl)cc21` (stereo not given), 0.5 to 5 µM.
The value for `NC(c1ccc(C(=O)Nc2ccncc2)cc1)C1CCCN1C(=O)Cc1cc(F)cc(F)c1` (stereo not given) was 0.5 to 5 µM; that for `NC(c1ccc(C(=O)Nc2ccncc2)cc1)C1CCCN1C(=O)Cc1ccc(O)c([N+](=O)[O-])c1` (stereo not given) was 0.5 to 5 µM.
With `NC(CNC(=O)c1ccccc1-c1ccccc1)c1ccc(C(=O)Nc2ccncc2)cc1` (stereo not given) the figure was 0.5 to 5 µM; with `NC(CNC(=O)C1CCc2ccccc2C1)c1ccc(C(=O)Nc2ccncc2)cc1` (stereo not given), 0.5 to 5 µM.
In turn, `NC(c1ccc(C(=O)Nc2ccncc2)cc1)C1CCCN1C(=O)Cc1ccc(F)c(Cl)c1` (stereo not given) returned an IC50 of 0.05 to 0.5 µM.
With `NC(c1ccc(C(=O)Nc2ccncc2)cc1)C1CCCN1C(=O)C1(c2ccc(Cl)cc2)CCC1` (stereo not given), the IC50 is 0.5 to 5 µM.
With `COc1cccc(CC(=O)N(C)CC(N)c2ccc(C(=O)Nc3ccncc3)cc2)c1` (stereo not given) the figure was 0.05 to 0.5 µM; with `NC(CNC(=O)CCc1ccc(F)cc1)c1ccc(C(=O)Nc2ccncc2)cc1` (stereo not given), 0.05 to 0.5 µM.
The compound `NC(CC(=O)Nc1ccc(CO)cc1)c1ccc(C(=O)Nc2ccncc2)cc1` (stereo not given) displayed an IC50 of 0.05 to 0.5 µM.
With `CCNC(=O)CC(N)c1ccc(C(=O)Nc2ccncc2)cc1` (stereo not given) the figure was 0.05 to 0.5 µM; with `CC(C)(C(=O)N1CCCC1C(N)c1ccc(C(=O)Nc2ccncc2)cc1)c1ccsc1` (stereo not given), 0.5 to 5 µM.
The value for `CN(CC(N)c1ccc(C(=O)Nc2ccncc2)cc1)C(=O)Cc1cccc(F)c1` (stereo not given) was 0.5 to 5 µM; that for `NC(CNC(=O)C1CCOc2ccccc21)c1ccc(C(=O)Nc2ccncc2)cc1` (stereo not given) was 0.05 to 0.5 µM; that for `NC(CNC(=O)C1(c2ccsc2)CC1)c1ccc(C(=O)Nc2ccncc2)cc1` (stereo not given) was 0.05 to 0.5 µM.
For `NC(CC(=O)NC(Cc1ccccc1)c1ccccc1)c1ccc(C(=O)Nc2ccncc2)cc1` (stereo not given), the IC50 lay in the range of 0.05 to 0.5 µM.
With `NC(CC(=O)N[C@@H]1CCCc2ccccc21)c1ccc(C(=O)Nc2ccncc2)cc1` (stereo not given in full) the figure was 0.05 to 0.5 µM.
`NC(CC(=O)NCc1cc(C(F)(F)F)cc(C(F)(F)F)c1)c1ccc(C(=O)Nc2ccncc2)cc1` (stereo not given) had an IC50 of 0.05 to 0.5 µM.
With `NC(c1ccc(C(=O)Nc2ccncc2)cc1)C1CCCN1C(=O)C1(c2cccs2)CC1` (stereo not given) the figure was 0.5 to 5 µM.
The value for `CC(C)(C(=O)N1CCCC1C(N)c1ccc(C(=O)Nc2ccncc2)cc1)c1ccc(F)c(Cl)c1` (stereo not given) was 0.5 to 5 µM; that for `COc1ccc(CC(=O)N2CCCC2C(N)c2ccc(C(=O)Nc3ccncc3)cc2)c(OC)c1` (stereo not given) was 0.5 to 5 µM; that for `NC(c1ccc(C(=O)Nc2ccncc2)cc1)C1CCCN1C(=O)C1(c2ccc(Cl)cc2)CC1` (stereo not given) was 0.5 to 5 µM.
The value for `NC(CNC(=O)c1ccc(=O)[nH]n1)c1ccc(C(=O)Nc2ccncc2)cc1` (stereo not given) was 0.5 to 5 µM.
In turn, `CN(CC(N)c1ccc(C(=O)Nc2ccncc2)cc1)C(=O)C1(c2ccc(F)cc2)CCC1` (stereo not given) gave an IC50 of 0.5 to 5 µM.
With `CN(CC(N)c1ccc(C(=O)Nc2ccncc2)cc1)C(=O)C1Cc2ccccc21` (stereo not given) the figure was 0.05 to 0.5 µM.
With `NC(CC(=O)NCCc1c[nH]c2ccccc12)c1ccc(C(=O)Nc2ccncc2)cc1` (stereo not given) the figure was 0.05 to 0.5 µM.

A word on the IC50: it is the point on the concentration scale where inhibition reaches its midpoint.

Values taken from the Kinase Knowledgebase extract (Sharma et al. 2016).
